# In patent US7074801B1, “Nitrogen-containing condensed cyclic compound having a pyrazolyl group as a substituent group and pharmaceutical composition thereof” (Eisai Co., Ltd., priority 2001, dated 2006):
# Structures can show the parent of a compound that is named as a salt.
# System: STAT6
# Experiment: Inhibitory test on STAT6 activation: IL-4-induced alkali phosphatase STAT6 reporter in 293 cells stably expressing the STAT6 gene and STAT6 reporter gene
# Assay type: cell-based
# Settings: HEK293; Table 1; 1 ng/ml human recombinant IL-4, 16 hours, 293 cells with STAT6 reporter; read-out: Inhibitory activity IC50 (concentration at which the alkali phosphatase activity induced by IL-4 was inhibited by 50%)
# Method: The inhibitory action of the present compound on activation of STAT6 was evaluated according to the following experiments.
# 1) Construction of a STAT6 Reporter Gene
# An oligonucleotide of SEQ ID NO:1 in which three STAT6-binding regions on a human immunoglobulin germline E gene promoter had been linked was mixed with its complementary chain, thermally denatured and annealed, and 5′- and 3′-ends thereof were cleaved with restriction enzymes Kpn I (Code No. 1068A, Takara Shuzo) and Xba I (Code No. 1093A, Takara Shuzo) respectively, and the resulting fragment was cloned into a Kpn I/Xba I site of pUG-BGH-PLAP vector (described in Molecular Pharmacology, 49:860–873, 1996). To induce a basic transcriptional factor, a TK promoter region of herpes virus was cloned into an Xba I/Hind III (Code No. 1060A, Takara Shuzo) site of the pUG-BGH-PLAP vector. To obtain a stably expressing cell strain, a neomycin resistance gene (PGK-neo expression cassette) was integrated with an Sal I (Code No. 1080A, Takara Shuzo) of this vector. Cloning of the TK promoter and PGK-neo expression cassette was carried out according to Molecular Pharmacology, 49:860–873, 1996.
# The underlined sites are a Kpn I recognition site and Xba I recognition site respectively. 2) Construction of an STAT6 Expression Vector
# An oligonucleotide of SEQ ID NO:2 containing an initiation codon of STAT6 gene and an oligonucleotide of SEQ ID NO:3 containing a stop codon were used, and total RNA was prepared from human peripheral blood cells by using RNeasy Mini kit (Code No. 74104, OIAGEN). Then, cDNA was prepared by reverse transcription reaction using Takara RNA LA PCR kit (Code No. RR012A, Takara Shuzo) and then subjected to PCR reaction with primers of SEQ ID NOS:2 and 3, to amplify the STAT6 gene. • (SEQ ID NO:2) 5′-[…]-3′ The underlined site is an EcoR I recognition site. • (SEQ ID NO:3) 5′-[…]-3′ The underlined site is an Xho I recognition site.
# The PCR product was digested with EcoR I (Code No. 1040A, Takara Shuzo) and Xho I (1094A, Takara Shuzo), and the digested fragment was isolated on an agarose gel. The isolated fragment was integrated into a vector fragment obtained by digesting pcDNA3.1 (+) (Code No. U790-20, Invitrogen) vector with EcoRI/Xho I.
# 3) Introduction of the Gene and Preparation of a Stably Expressing Cell Strain
# Human fetal kidney-derived 293 cells (American Type Culture Collection), 3.0×10^5 cells, were spread on a Falcon tissue culture 6-well plate (Code No. 35-3046, Becton Dickinson) and cultured overnight. 1.5 μg of the prepared STAT6 reporter gene, 1.5 μg of the STAT6 gene and 20 μl of lipofectamine (Code No. 18324-012, GIBCO BRL) were mixed in 0.3 ml OPTI-MEM medium (Code No. 31985-070) and left at room temperature for 20 minutes. Thereafter, 1.2 ml OPTI-MEM medium was further added to the cells washed with OPTI-MEM medium not containing fetal bovine serum, and the cells were cultured for 2 hours. 1.5 ml medium containing fetal bovine serum was added thereto, and the cells were cultured for additional 19 hours. The medium was exchanged with a fresh one, and Geneticin (Code No. G-5013, SIGMA) was added at a concentration of 1 mg/ml, and the cells were cultured, and chemical-resistant cells were selected. The resulting chemical-resistant cells were floated in a medium containing 1 mg/ml Geneticin, then spread at a density of 0.5 cell/well on a 96-well microplate (Code No. 35-3072, Becton Dickinson) and cloned to give a clone expressing alkali phosphatase in response to IL-4.
# 4) Inhibitory Test on STAT6 Activation
# The cells stably expressing the STAT6 gene and STAT6 reporter gene and expressing alkali phosphatase in response to IL-4 were spread at a density of 5000 cells/180 μl/well on a 96-well microplate (Code No. 35-3072, Becton Dickinson) and cultured overnight. […]
row,IC50 [nM],SMILES
1,10 to 100,"Clc1ccccc1N1CCN(c2ncnc3ccc(-c4cn[nH]c4)cc23)CC1 [Example 287, 4-[4-(2-Chlorophenyl)piperazin-1-yl]-6-(1H-4-pyrazolyl)-quinazoline]"
2,100 to 1000,"COc1ccc(-c2n[nH]cc2-c2ccc3ncnc(-c4ccc(S(C)(=O)=O)s4)c3c2)cc1OC [Example 261, 6-[3-(3,4-Dimethoxyphenyl)-1H-4-pyrazolyl]-4-[5-(methylsulfonyl)-2-thienyl]quinazoline dihydrochloride]"
3,< 10,"CS(=O)(=O)c1cnc(-c2cnc3ccc(-c4c[nH]nc4-c4c(F)cccc4F)cn23)s1 [Example 549, 6-[3-(2,6-Difluorophenyl)-1H-pyrazol-4-yl]-3-(5-methylsulfonylthiazol-2-yl)imidazo[1,2-a]pyridine]"
4,< 10,"N#Cc1ccc(-c2n[nH]cc2-c2ccc3ncn(-c4ccc(C#N)cn4)c3c2)cc1 [Example 148, 6-{6-[3-(4-Cyanophenyl)-1H-4-pyrazolyl]-1H-benzo[d]-imidazol-1-yl}nicotinonitrile trihydrochloride]"
5,< 10,CC(C)=Cc1nc(-c2cnc3ccc(-c4c[nH]nc4-c4ccccc4F)cn23)no1 [Example 592]
6,10 to 100,"FC(F)(F)c1cccc(N2CCN(c3ncnc4ccc(-c5cn[nH]c5)cc34)CC2)c1 [Example 265, 6-(1H-4-Pyrazolyl)-4-{4-[3-(trifluoromethyl)phenyl]-piperazin-1-yl}quinazoline trihydrochloride]"
7,10 to 100,"Cc1n[nH]cc1-c1ccc2ncc(-c3ccc(S(=O)(=O)N(C)c4ccc(Cl)cc4)cc3)n2c1 [Example 632, N1-(4-Chlorophenyl)-N1-methyl-4-[6-(3-methyl-1H-4-pyrazolyl)imidazo[1,2-a]pyridin-3-yl]-1-benzene sulfonamide]"
8,< 10,"O=C(NC1(c2ccc(F)cc2)CC1)c1ccc(-c2cnc3ccc(-c4cn[nH]c4)cn23)cc1F [Example 663, N1-[1-(4-Fluorophenyl)cyclopropyl]-2-fluoro-4-[6-(1H-4-pyrazolyl)imidazo[1,2-a]pyridin-3-yl]benzamide hydrochloride]"
9,< 10,"N#Cc1ccc(-c2n[nH]cc2-c2ccc3ncc(-c4ccc(CN5CCC[C@H]5C(N)=O)s4)n3c2)cc1 [Example 109, (2S)-1-{[(5-{6-[3-(4-Cyanophenyl)-1H-4-pyrazolyl]imidazo-[1,2-a]pyridin-3-yl}-2-thienyl)methyl]tetrahydro-1H-2-pyrrolecarboxyamidetrihydrochloride]"
10,< 10,"Cc1cc(NC(=O)c2ccc(-c3cnc4ccc(-c5cn[nH]c5)cn34)cc2F)on1 [Example 688, N1-(3-Methylisoxazol-5-yl)-2-fluoro-4-[6-(1H-4-pyrazolyl)-imidazo[1,2-a]pyridin-3-yl]benzamide dihydrochloride]"
11,10 to 100,"Cc1n[nH]cc1-c1ccc2nccc(N3CCN(C(=O)N(C)CCN(C)C)CC3)c2c1 [Example 227, N-[2-(Dimethylamino)ethyl]-N-methyl-4-[6-(3-methyl-1H-4-pyrazolyl)-4-quinolyl]-1-piperazine carboxamide dihydrochloride]"
12,< 10,"CC(=O)NCCCOc1ccc(-c2cnc3ccc(-c4c[nH]nc4-c4ccc(F)cc4)cn23)cc1 [Example 87, N-[3-(4-{6-[3-(4-Fluorophenyl)-1H-4-pyrazolyl]imidazo-[1,2-a]pyridin-3-yl}phenoxy)propyl]acetamide]"

# Same assay, conditions: HEK293; Table 2; 1 ng/ml human recombinant IL-4, 16 hours, 293 cells with STAT6 reporter; read-out: Inhibitory activity IC50 (concentration at which the alkali phosphatase activity induced by IL-4 was inhibited by 50%)
row,IC50 [nM],SMILES
1,10 to 100,"O=C(Nc1ccc(F)cc1F)c1ccc(-c2ncnc3ccc(-c4cn[nH]c4)cc23)s1 [Example 869, 5-[6-(1H-Pyrazol-4-yl)quinazolin-4-yl]thiophen-2-carboxylic acid (2,4-difluorophenyl)amide dihydrochloride]"
2,< 10,"O=S(=O)(c1ccc(-c2ncnc3ccc(-c4c[nH]nc4-c4ccc(F)cc4F)cc23)s1)C1CC1 [Example 903, 4-(5-Cyclopropanesulfonylthiophen-2-yl)-6-[3-(2,4-difluorophenyl)-1H-pyrazol-4-yl] quinazoline]"
3,10 to 100,"Cc1n[nH]cc1-c1ccc2ncnc(N3CCC(Oc4cccc(C#N)c4)CC3)c2c1 [Example 876, 3-{1-[6-(3-Methyl-1H-pyrazol-4-yl)quinazolin-4-yl]piperidin-4-yloxy} benzonitrile trihydrochloride]"
4,10 to 100,"Fc1ccc(-c2n[nH]cc2-c2ccc3ncnc(-c4nnc(C5CC5)o4)c3c2)c(F)c1 [Example 907, 4-(5-Cyclopropyl[1,3,4]oxadiazol-2-yl)-6-[3-(2,4-difluorophenyl)-1H-pyrazol-4-yl] quinazoline]"
5,< 10,"Cc1cn(-c2ncnc3ccc(-c4c[nH]nc4-c4c(F)cccc4F)cc23)cn1 [Example 914, 6-[3-(2,6-Difluorophenyl)-1H-pyrazol-4-yl]-4-(4-methylimidazol-1-yl) quinazoline]"
6,< 10,"Cn1cc(-c2ncnc3ccc(-c4c[nH]nc4-c4c(F)cccc4F)cc23)cn1 [Example 910, 6-[3-(2,6-Difluorophenyl)-1H-pyrazol-4-yl]-4-(1-methyl-1H-pyrazol-4-yl) quinazoline]"
7,< 10,"CSc1ccc(-c2n[nH]cc2-c2ccc3ncnc(-c4ccc(S(C)(=O)=O)s4)c3c2)cc1 [Example 895, 6-[3-(4-Methylsulfanylphenyl)-1H-pyrazol-4-yl]-4-(5-methylsulfonylthiophen-2-yl) quinazoline]"
8,10 to 100,"COc1nnc(-c2ncnc3ccc(-c4c[nH]nc4-c4c(F)cccc4F)cc23)o1 [Example 909, 6-[3-(2,6-Difluorophenyl)-1H-pyrazol-4-yl]-4-(5-methoxy|[1,3,4]oxadiazol-2-yl) quinazoline]"
9,< 10,"O=S1(=O)CCCN1c1cccc(N2CCN(c3ncnc4ccc(-c5cn[nH]c5)cc34)CC2)c1 [Example 1000, 4-{4-[3-(1,1-Dioxo-isothiazolidin-2-yl)phenyl]piperazin-1-yl}-6-(1H-pyrazol-4-yl)quinazoline tri-trifluoroacetate]"
10,10 to 100,"CC(NC(=O)c1ccc(-c2cnc3ccc(-c4cn[nH]c4)cn23)cc1F)c1ccccn1 (centres unmarked) [Example 707, N1-[1-(2-Pyridyl)ethyl]-2-fluoro-4-[6-(1H-4-pyrazolyl)-imidazo[1,2-a]pyridin-3-yl]benzamide dihydrochloride]"
11,< 10,"CS(=O)(=O)c1ccc(N2CCN(c3ncnc4ccc(-c5cn[nH]c5)cc34)CC2)s1 [Example 923, 4-[4-(5-Methylsulfonylthiophen-2-yl)piperazin-1-yl]-6-(1H-pyrazol-4-yl)quinazoline trihydrochloride]"
12,100 to 1000,"Cc1ccc(S(=O)(=O)N2CCN(c3ncnc4ccc(-c5cn[nH]c5)cc34)CC2)cc1 [Example 971, 4-[4-(Toluene-4-sulfonyl)piperazin-1-yl]-6-(1H-pyrazol-4-yl)quinazoline di-trifluoroacetate]"
13,10 to 100,"O=C(Nc1ccc(-c2cnc3ccc(-c4cn[nH]c4)cn23)cc1F)c1ccc(F)cc1 [Example 705, N1-{2-Fluoro-4-[6-(1H-4-pyrazolyl)imidazo[1,2-a]pyridin-3-yl]phenyl}-4-fluorobenzamide hydrochloride]"
14,10 to 100,"CS(=O)(=O)c1ccccc1NC(=O)c1ccc(-c2cnc3ccc(-c4cn[nH]c4)cn23)cc1F [Example 701, N1-[2-(Methylsulfonyl)phenyl]-2-fluoro-4-[6-(1H-4-pyrazolyl)imidazo[1,2-a]pyridin-3-yl]benzamide hydrochloride]"
